This note sets out measurements from ChEMBL document CHEMBL1671651, “Azithromycin in Pseudomonas aeruginosa biofilms: bactericidal activity and selection of nfxB mutants” (2009).

Assay [1] concerns Pseudomonas aeruginosa. As to the kind of experiment: Antimicrobial activity against mexD gene-deficient Pseudomonas aeruginosa […] assessed as increase in viable cells at 0.5 to 4 ug/ml after 24 hrs relative to wild-type. The class given is functional.
Assay [2] relates to Pseudomonas aeruginosa. As to the kind of experiment: Antimicrobial activity against mutS::lox-deficient Pseudomonas aeruginosa PAOMS planktonic cells by microdilution method. In kind it is functional. On the technique in general: Broth dilution looks for growth in wells or tubes with falling amounts of substance.
Assay [3] concerns Pseudomonas aeruginosa. Kind of assay: Bactericidal activity against Pseudomonas aeruginosa PAO1 biofilm assessed as reduction in bacterial load at 256 ug/ml for 7 days measured on day 1. In kind it is functional.
Assay [4] deals with Pseudomonas aeruginosa. Kind of assay: Antimicrobial activity against Pseudomonas aeruginosa PAO1 planktonic cells by microdilution method. In kind it is functional.
Assay [5] deals with Pseudomonas aeruginosa. As to the kind of experiment: Bactericidal activity against mucA::lox, mutS::lox-deficient Pseudomonas aeruginosa PAOMSA biofilm assessed as reduction in bacterial load at 256 ug/ml for 7 days measured on day 1. The class given is functional.
In assay [6] the test system is Pseudomonas aeruginosa. Kind of assay: Bactericidal activity against Pseudomonas aeruginosa PAO1 biofilm assessed as reduction in bacterial load at => 4 ug/ml upto 7 days. In kind it is functional, organism-based.
The subject of assay [7] is Pseudomonas aeruginosa. Kind of assay: Bactericidal activity against mutS::lox-deficient Pseudomonas aeruginosa PAOMS biofilm assessed as increase in viable cells at 4 ug/ml for 4 days. In kind it is functional, organism-based.
The test system of assay [8] is Pseudomonas aeruginosa. Kind of assay: Bactericidal activity against mutS::lox-deficient Pseudomonas aeruginosa PAOMS biofilm assessed as increase in viable cells at day 7 relative to wild-type. The class given is functional.
Assay [9] deals with Pseudomonas aeruginosa. As to the kind of experiment: Bactericidal activity against mucA::lox, mutS::lox-deficient Pseudomonas aeruginosa PAOMSA biofilm assessed as increase in viable cells at 16 ug/ml. The class given is functional, organism-based.
The subject of assay [10] is Pseudomonas aeruginosa. Kind of assay: Bactericidal activity against mutS::lox-deficient Pseudomonas aeruginosa PAOMS biofilm assessed as increase in viable cells at 4 ug/ml for 7 days. In kind it is functional, organism-based.
Assay [11] concerns Pseudomonas aeruginosa. As to the kind of experiment: Bactericidal activity against mucA::lox, mutS::lox-deficient Pseudomonas aeruginosa PAOMSA biofilm assessed as increase in viable cells at 4 ug/ml for 7 days. The class given is functional, organism-based.
Assay [12] concerns Pseudomonas aeruginosa. Kind of assay: Antimicrobial activity against nfxB gene-deficient Pseudomonas aeruginosa PAONB assessed as increase in viable cells at 0.5 to 4 ug/ml after 24 hrs relative to wild-type. The class given is functional.
The test system of assay [13] is Pseudomonas aeruginosa. Kind of assay: Antimicrobial activity against mucA::lox-deficient Pseudomonas aeruginosa PAOMA planktonic cells by microdilution method. In kind it is functional.
Assay [14] relates to Pseudomonas aeruginosa. As to the kind of experiment: Bactericidal activity against mutS::lox-deficient Pseudomonas aeruginosa PAOMS biofilm assessed as reduction in bacterial load at 256 ug/ml for 7 days measured on day 1. In kind it is functional.
In assay [15] the test system is Pseudomonas aeruginosa. As to the kind of experiment: Antimicrobial activity against mucA::lox, mutS::lox-deficient Pseudomonas aeruginosa PAOMSA planktonic cells by microdilution method. In kind it is functional.
The subject of assay [16] is Pseudomonas aeruginosa. Kind of assay: Bactericidal activity against mucA::lox, mutS::lox-deficient Pseudomonas aeruginosa PAOMSA biofilm assessed as increase in viable cells relative to […]. The class given is functional.
Assay [17] has as its system Pseudomonas aeruginosa. As to the kind of experiment: Bactericidal activity against mucA::lox-deficient Pseudomonas aeruginosa PAOMA biofilm assessed as reduction in bacterial load at => 4 ug/ml upto 7 days. The class given is functional, organism-based.
For assay [18], the system named is Pseudomonas aeruginosa. Kind of assay: Bactericidal activity against Pseudomonas aeruginosa PAO1 biofilm assessed as reduction in bacterial load at 0.5 ug/ml for 7days measured on day 1. In kind it is functional.
For assay [19], the system named is Pseudomonas aeruginosa. As to the kind of experiment: Bactericidal activity against mucA::lox, mutS::lox-deficient Pseudomonas aeruginosa PAOMSA biofilm assessed as increase in viable cells at 4 ug/ml for 4 days. The class given is functional, organism-based.
The test system of assay [20] is Pseudomonas aeruginosa. As to the kind of experiment: Bactericidal activity against mutS::lox-deficient Pseudomonas aeruginosa PAOMS biofilm assessed as reduction in bacterial load at 0.5 ug/ml for 7 days measured on day 1. In kind it is functional.

Values after ≈ are worked out from the molar mass of the structure shown. Active and inactive are the calls of the source.

As a reminder, the MIC is the smallest concentration in the dilution series that meets the test's criterion for growth inhibition. Higher therefore signals a less susceptible organism. On to `CC[C@H]1OC(=O)[C@H](C)[C@@H](O[C@H]2C[C@@](C)(OC)[C@@H](O)[C@H](C)O2)[C@H](C)[C@@H](O[C@@H]2O[C@H](C)C[C@H](N(C)C)[C@H]2O)[C@](C)(O)C[C@@H](C)CN(C)[C@H](C)[C@@H](O)[C@]1(C)O` [AZITHROMYCIN], for which the “fold change (FC)” value in the assay with Pseudomonas aeruginosa [1] is 1; with Pseudomonas aeruginosa [8], 50; in the assay with Pseudomonas aeruginosa [12], 1; in the assay with Pseudomonas aeruginosa [16], 5000. For the same compound, the MIC against Pseudomonas aeruginosa [2], against Pseudomonas aeruginosa [4], against Pseudomonas aeruginosa [13] and in the assay on Pseudomonas aeruginosa [15] was 128 µg/mL (≈ 171 µM) throughout. For the same compound, the log10cfu is recorded as 4 in the assay on Pseudomonas aeruginosa [3]; 2 in the assay with Pseudomonas aeruginosa [5]; 4 with Pseudomonas aeruginosa [14]; 2 with Pseudomonas aeruginosa [18]; 2 in the assay with Pseudomonas aeruginosa [20]. The result with Pseudomonas aeruginosa [6] and with Pseudomonas aeruginosa [17] was Active. In addition, the result in the assay on Pseudomonas aeruginosa [7], in the assay with Pseudomonas aeruginosa [9], in the assay on Pseudomonas aeruginosa [10], in the assay with Pseudomonas aeruginosa [11] and in the assay on Pseudomonas aeruginosa [19] was inactive.
